Data reported in paper PMC7574915 (Science Translational Medicine, 2020).
Where “and” joins values, the source holds several entries; their conditions need not be identical. Identical values can stand only once.

System: not listed separately
Assay: in vitro
Conditions: not given

With `CC(C)C[C@H](NC(=O)OC1CCCCC1)C(=O)N[C@H](C=O)C[C@@H]1CCNC1=O` [Compound 6a] as the molecule, how does the CC50 read?
The CC50 was > 100000 nM.

With `CCCC1CCC(OC(=O)N[C@@H](CC(C)C)C(=O)N[C@H](C=O)C[C@@H]2CCNC2=O)CC1` (stereo partly drawn) [Compound 6c] as the molecule, how does the CC50 read?
The CC50 was > 100000 nM.

For `CCCCC1CCC(OC(=O)N[C@@H](CC(C)C)C(=O)N[C@H](C=O)C[C@@H]2CCNC2=O)CC1` (stereo partly drawn) [Compound 6e], which CC50 is on record?
Its CC50 is 63300 ± 2300 nM.

With `CC(C)C[C@H](NC(=O)OC1CCC(F)(F)CC1)C(=O)N[C@H](C=O)C[C@@H]1CCNC1=O` [Compound 6h] as the molecule, how does the CC50 read?
The CC50 was > 100000 nM.

Which CC50 does the source give for `CC(C)C[C@H](NC(=O)OCC1CCC(F)(F)CC1)C(=O)N[C@H](C=O)C[C@@H]1CCNC1=O` [Compound 6j] here?
Its CC50 is > 100000 nM.

System: MERSMA-CoV
Assay: not given
Conditions: mouse, in vivo

With `CC(C)C[C@H](NC(=O)OCC1CCC(F)(F)CC1)C(=O)N[C@H](C=O)C[C@@H]1CCNC1=O` [Compound 6j] as the molecule, how does the “Edema in the lungs (score 0 to 4)” value read?
Its value is “reduced compared to control mice”.

And the Lung virus titers?
Its Lung virus titers is “decreased”.

And the “Scores for hyaline membrane formation (0 to 4)” value?
The value was “reduced in 6j-treated mice but were not statistically different from control mice”.

And the “lung lesions (histopathology)” value?
Its value is “few observed lesions”.

System: SARS-CoV-2
Assay: microbe, parasite or virus in culture
Type: cell-based
Conditions: not given

With `CCCCC1CCC(OC(=O)N[C@@H](CC(C)C)C(=O)N[C@H](C=O)C[C@@H]2CCNC2=O)CC1` (stereo partly drawn) [Compound 6e] as the molecule, how does the “inhibition of viral replication” value read?
Its value is “about 10 fold”.

Which “inhibition of viral replication” value does the source give for `CC(C)C[C@H](NC(=O)OCC1CCC(F)(F)CC1)C(=O)N[C@H](C=O)C[C@@H]1CCNC1=O` [Compound 6j] here?
Its value is “about 10 fold”.

And the “inhibition of virus replication” value?
Its value is 100 fold.

Same assay, conditions: 48 hours

For `CC(C)C[C@H](NC(=O)OCC1CCC(F)(F)CC1)C(=O)N[C@H](C=O)C[C@@H]1CCNC1=O` [Compound 6j], which “Virus titers (log10)” value is on record?
The value was 6.35 ± 0.02 log10 and 6.10 ± 0.09 log10 and 6.30 ± 0.1 log10.

Same assay, conditions: Severe acute respiratory syndrome coronavirus 2, Epithelial cell, read-out: inhibition of virus replication

For `CCCCC1CCC(OC(=O)N[C@@H](CC(C)C)C(=O)N[C@H](C=O)C[C@@H]2CCNC2=O)CC1` (stereo partly drawn) [Compound 6e], which inhibition at 0.5 µM is on record?
Its inhibition at 0.5 µM is ~50%.

System: SARS-CoV-2
Assay: microbe, parasite or virus in culture
Type: cell-based
Conditions: Severe acute respiratory syndrome coronavirus 2, Vero C1008, read-out: EC50 in cell culture, SARS-CoV-2

Which EC50 does the source give for `CCCC1CCC(OC(=O)N[C@@H](CC(C)C)C(=O)N[C@H](C=O)C[C@@H]2CCNC2=O)CC1` (stereo partly drawn) [Compound 6c] here?
The EC50 was 250 ± 150 nM.

Which EC50 does the source give for `CCCCC1CCC(OC(=O)N[C@@H](CC(C)C)C(=O)N[C@H](C=O)C[C@@H]2CCNC2=O)CC1` (stereo partly drawn) [Compound 6e] here?
Its EC50 is 150 ± 140 nM.

Which EC50 does the source give for `CC(C)C[C@H](NC(=O)OC1CCC(F)(F)CC1)C(=O)N[C@H](C=O)C[C@@H]1CCNC1=O` [Compound 6h] here?
The EC50 was 900 ± 800 nM.

System: MERS-CoV
Assay: microbe, parasite or virus in culture
Type: cell-based
Conditions: not given

With `CCCC1CCC(OC(=O)N[C@@H](CC(C)C)C(=O)N[C@H](C=O)C[C@@H]2CCNC2=O)CC1` (stereo partly drawn) [Compound 6c] as the molecule, how does the “EC50 in cell culture, MERS-CoV” value read?
Its value is “submicromolar”.

Which “EC50 in cell culture, MERS-CoV” value does the source give for `CC(C)C[C@H](NC(=O)OCC1CCC(F)(F)CC1)C(=O)N[C@H](C=O)C[C@@H]1CCNC1=O` [Compound 6j] here?
Its value is “submicromolar”.

Same assay, conditions: Middle East respiratory syndrome-related coronavirus, Huh-7, read-out: EC50 in cell culture, MERS-CoV

Which EC50 does the source give for `CCCC1CCC(OC(=O)N[C@@H](CC(C)C)C(=O)N[C@H](C=O)C[C@@H]2CCNC2=O)CC1` (stereo partly drawn) [Compound 6c] here?
Its EC50 is 50 ± 60 nM.

Which EC50 does the source give for `CC(C)C[C@H](NC(=O)OCC1CCC(F)(F)CC1)C(=O)N[C@H](C=O)C[C@@H]1CCNC1=O` [Compound 6j] here?
The EC50 was 40 ± 20 nM.

System: FIPV
Assay: microbe, parasite or virus in culture
Type: cell-based, feline infectious peritonitis virus
Conditions: Alphacoronavirus 1, CRFK, 24 h, read-out: EC50 in cell culture, FIPV

With `CC(C)C[C@H](NC(=O)OC1CCCCC1)C(=O)N[C@H](C=O)C[C@@H]1CCNC1=O` [Compound 6a] as the molecule, how does the EC50 read?
Its EC50 is 90 ± 20 nM.

With `CCCC1CCC(OC(=O)N[C@@H](CC(C)C)C(=O)N[C@H](C=O)C[C@@H]2CCNC2=O)CC1` (stereo partly drawn) [Compound 6c] as the molecule, how does the EC50 read?
The EC50 was 120 ± 10 nM.

Which EC50 does the source give for `CCCCC1CCC(OC(=O)N[C@@H](CC(C)C)C(=O)N[C@H](C=O)C[C@@H]2CCNC2=O)CC1` (stereo partly drawn) [Compound 6e] here?
The EC50 was 220 ± 30 nM.

Which EC50 does the source give for `CC(C)C[C@H](NC(=O)OC1CCC(F)(F)CC1)C(=O)N[C@H](C=O)C[C@@H]1CCNC1=O` [Compound 6h] here?
The EC50 was 120 ± 50 nM.

With `CC(C)C[C@H](NC(=O)OCC1CCC(F)(F)CC1)C(=O)N[C@H](C=O)C[C@@H]1CCNC1=O` [Compound 6j] as the molecule, how does the EC50 read?
The EC50 was 80 ± 20 nM.

System: MHV
Assay: microbe, parasite or virus in culture
Type: cell-based, mouse hepatitis virus
Conditions: Murine coronavirus, L929, 24 h, read-out: EC50 in cell culture, MHV

Which EC50 does the source give for `CC(C)C[C@H](NC(=O)OC1CCCCC1)C(=O)N[C@H](C=O)C[C@@H]1CCNC1=O` [Compound 6a] here?
Its EC50 is 120 ± 50 nM.

With `CCCC1CCC(OC(=O)N[C@@H](CC(C)C)C(=O)N[C@H](C=O)C[C@@H]2CCNC2=O)CC1` (stereo partly drawn) [Compound 6c] as the molecule, how does the EC50 read?
The EC50 was 130 ± 50 nM.

Which EC50 does the source give for `CCCCC1CCC(OC(=O)N[C@@H](CC(C)C)C(=O)N[C@H](C=O)C[C@@H]2CCNC2=O)CC1` (stereo partly drawn) [Compound 6e] here?
The EC50 was 120 ± 40 nM.

With `CC(C)C[C@H](NC(=O)OC1CCC(F)(F)CC1)C(=O)N[C@H](C=O)C[C@@H]1CCNC1=O` [Compound 6h] as the molecule, how does the EC50 read?
The EC50 was 80 ± 50 nM.

Biological target: 3CLpro of SARS-CoV (Severe acute respiratory syndrome coronavirus, UniProt P0C6X7)
Assay: biochemical
Conditions: not given

Which IC50 does the source give for `CC(C)C[C@H](NC(=O)OC1CCCCC1)C(=O)N[C@H](C=O)C[C@@H]1CCNC1=O` [Compound 6a] here?
Its IC50 is 3900 ± 300 nM.

For `CCCCC1CCC(OC(=O)N[C@@H](CC(C)C)C(=O)N[C@H](C=O)C[C@@H]2CCNC2=O)CC1` (stereo partly drawn) [Compound 6e], which IC50 is on record?
The IC50 was 900 ± 100 nM.

For `CC(C)C[C@H](NC(=O)OC1CCC(F)(F)CC1)C(=O)N[C@H](C=O)C[C@@H]1CCNC1=O` [Compound 6h], which IC50 is on record?
The IC50 was 2300 ± 300 nM.

Biological target: T1, 3CLpro of SARS-CoV-2 (Severe acute respiratory syndrome coronavirus 2, UniProt P0DTD1)
T1 construct: His6 (N); made in house; host or cells: E. coli (inferred from the pET-28a(+) vector)
Assay: biochemical
Conditions: not given

With `CC(C)C[C@H](NC(=O)OC1CCCCC1)C(=O)N[C@H](C=O)C[C@@H]1CCNC1=O` [Compound 6a] as the molecule, how does the IC50 read?
The IC50 was 820 ± 100 nM.

For `CCCC1CCC(OC(=O)N[C@@H](CC(C)C)C(=O)N[C@H](C=O)C[C@@H]2CCNC2=O)CC1` (stereo partly drawn) [Compound 6c], which IC50 is on record?
The IC50 was 280 ± 50 nM.

Which IC50 does the source give for `CCCCC1CCC(OC(=O)N[C@@H](CC(C)C)C(=O)N[C@H](C=O)C[C@@H]2CCNC2=O)CC1` (stereo partly drawn) [Compound 6e] here?
Its IC50 is 170 ± 60 nM.

Which IC50 does the source give for `CC(C)C[C@H](NC(=O)OC1CCC(F)(F)CC1)C(=O)N[C@H](C=O)C[C@@H]1CCNC1=O` [Compound 6h] here?
The IC50 was 430 ± 100 nM.

System: MERSMA-CoV
Assay: not given
Conditions: mouse, in vivo, 50 mg/kg/day

With `CC(C)C[C@H](NC(=O)OCC1CCC(F)(F)CC1)C(=O)N[C@H](C=O)C[C@@H]1CCNC1=O` [Compound 6j] as the molecule, how does the body weight read?
Its body weight is “regained the lost weight by 15 dpi”.

Same assay, conditions: mouse, in vivo, ip, 50 mg/kg/day

What does the source list for `CC(C)C[C@H](NC(=O)OC1CCC(F)(F)CC1)C(=O)N[C@H](C=O)C[C@@H]1CCNC1=O` [Compound 6h]?
body weight: continued to lose body weight until 6 dpi but then started to gain weight from 9 dpi; survival at the end of the study (15 dpi): 40%

What does the source list for `CC(C)C[C@H](NC(=O)OCC1CCC(F)(F)CC1)C(=O)N[C@H](C=O)C[C@@H]1CCNC1=O` [Compound 6j]?
body weight: rapidly recovered from body weight loss starting at 3 dpi; survival at the end of the study (15 dpi): all mice treated with compound 6j were alive

Biological target: 3CLpro of MERS-CoV (Middle East respiratory syndrome-related coronavirus, UniProt K9N7C7)
Sequence (K9N7C7 3248-3553 limits assumed): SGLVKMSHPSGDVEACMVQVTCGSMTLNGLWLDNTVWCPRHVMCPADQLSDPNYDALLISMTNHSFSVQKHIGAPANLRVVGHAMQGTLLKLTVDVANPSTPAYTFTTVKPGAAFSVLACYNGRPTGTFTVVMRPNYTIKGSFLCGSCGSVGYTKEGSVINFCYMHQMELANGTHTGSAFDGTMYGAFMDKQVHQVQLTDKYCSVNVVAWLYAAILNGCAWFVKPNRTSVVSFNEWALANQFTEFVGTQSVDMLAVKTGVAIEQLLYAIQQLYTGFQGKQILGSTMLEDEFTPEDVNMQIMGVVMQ
Assay: biochemical
Conditions: not given

Which IC50 does the source give for `CC(C)C[C@H](NC(=O)OC1CCCCC1)C(=O)N[C@H](C=O)C[C@@H]1CCNC1=O` [Compound 6a] here?
Its IC50 is 350 ± 100 nM.

Which IC50 does the source give for `CCCCC1CCC(OC(=O)N[C@@H](CC(C)C)C(=O)N[C@H](C=O)C[C@@H]2CCNC2=O)CC1` (stereo partly drawn) [Compound 6e] here?
The IC50 was 150 ± 20 nM.

Which IC50 does the source give for `CC(C)C[C@H](NC(=O)OC1CCC(F)(F)CC1)C(=O)N[C@H](C=O)C[C@@H]1CCNC1=O` [Compound 6h] here?
Its IC50 is 70 ± 10 nM.
